Values quoted from earlier work in patent publication US20210386367A1, “DEVICES AND SYSTEMS FOR GASTROINTESTINAL MICROBIOME DETECTION AND MANIPULATION” (Progenity, Inc., priority 2018, published 2021).
Converted amounts (≈) assume the structure as drawn. Like-named read-outs stand apart in the source and are kept apart here.

Legend:
Details in all cases: cited from earlier work
Fusobacterium spp [1] = tested on: Fusobacterium spp
Prevotella spp. [2] = tested on: Prevotella spp.
Staphylococcus aureus [3] = tested on: Staphylococcus aureus
Enterococcus spp. = tested on: Enterococcus spp.
Staphylococci = tested on: Staphylococci
Bacteroides fragilis [4] = tested on: Bacteroides fragilis
Escherichia coli [5] = tested on: Escherichia coli
Enterococcus faecalis = tested on: Enterococcus faecalis
Klebsiella spp. = tested on: Klebsiella spp.
[6] = tested on: E. coli ATCC 35218 (TEM-1 β-lactamase producer)
Veillonella = tested on: Veillonella
MDR Enterobacteriaceae = tested on: MDR Enterobacteriaceae
Prevotella bivia = tested on: Prevotella bivia
[7] = tested on: Bacteroides thetaiotaomicron
Pseudomonas aeruginosa = tested on: Pseudomonas aeruginosa
Bacteroides vulgatus = tested on: Bacteroides vulgatus
Fusobacterium spp [8] = tested on: Fusobacterium spp; remark: listed apart in the source
Klebsiella pneumoniae [9] = tested on: Klebsiella pneumoniae
Haemophilus influenzae = tested on: Haemophilus influenzae
Escherichia coli [10] = tested on: Escherichia coli; remark: listed apart in the source
Bacteroides fragilis [11] = tested on: Bacteroides fragilis; remark: listed apart in the source
XDR Enterobacteriaceae = tested on: XDR Enterobacteriaceae
Staphylococcus aureus [12] = tested on: Staphylococcus aureus; remark: listed apart in the source
Citrobacter spp. [13] = tested on: Citrobacter spp.
Proteus mirabilis = tested on: Proteus mirabilis
Citrobacter spp. [14] = tested on: Citrobacter spp.; remark: listed apart in the source
Klebsiella pneumoniae [15] = tested on: Klebsiella pneumoniae; remark: listed apart in the source
Lactobacillus spp. = tested on: Lactobacillus spp.
Clostridium spp. = tested on: Clostridium spp.
[16] = tested on: Bacteroides thetaiotaomicron; remark: listed apart in the source
Bacteroides fragilis [17] = tested on: Bacteroides fragilis; remark: listed apart in the source
Prevotella spp. [18] = tested on: Prevotella spp.; remark: listed apart in the source
Streptococcus agalactiae = tested on: Streptococcus agalactiae

## CO[C@H]1/C=C/O[C@@]2(C)Oc3c(C)c(O)c4c(O)c(c5c(nc6cc(C)ccn65)c4c3C2=O)NC(=O)/C(C)=C\C=C\[C@H](C)[C@H](O)[C@@H](C)[C@@H](O)[C@@H](C)[C@H](OC(C)=O)[C@@H]1C [rifaximin]
Fusobacterium spp [1]
  MIC50: 8 µg/mL (≈ 10.2 µM)
  MIC90: >1024 µg/mL
Prevotella spp. [2]
  MIC50: 0.25 µg/mL (≈ 0.318 µM)
  MIC90: 0.5 µg/mL (≈ 0.636 µM)
  MIC range: 0.25 to 1 µg/mL
Staphylococcus aureus [3]
  % S: 100%
  MIC50: ≤0.25 µg/mL
  MIC90: ≤0.25 µg/mL
  MIC range: ≤0.25 µg/mL
Enterococcus spp.
  MIC50: 4 µg/mL (≈ 5.09 µM)
  MIC90: 32 µg/mL (≈ 40.7 µM)
  MIC range: ≤0.06 to 32 µg/mL
Staphylococci
  MIC50: ≤0.06 µg/mL
  MIC90: 64 µg/mL (≈ 81.4 µM)
  MIC range: ≤0.06 to 64 µg/mL
Bacteroides fragilis [4]
  MIC50: 0.25 µg/mL (≈ 0.318 µM)
  MIC90: >1024 µg/mL
Escherichia coli [5]
  MIC50: 32 µg/mL (≈ 40.7 µM)
  MIC90: 128 µg/mL (≈ 163 µM)
Enterococcus faecalis
  % S: 100%
  MIC50: 4 µg/mL (≈ 5.09 µM)
  MIC90: 16 µg/mL (≈ 20.4 µM)
  MIC range: ≤0.25 to 16 µg/mL
Klebsiella spp.
  % S: 43.6%
  MIC50: 64 µg/mL (≈ 81.4 µM)
  MIC90: 128 µg/mL (≈ 163 µM)
  MIC range: 8 to 128 µg/mL

## C[C@@H](O)[C@H]1C(=O)N2C(C(=O)O)=C(S[C@@H]3CN[C@H](C(=O)N(C)C)C3)[C@H](C)[C@H]12 [meropenem]
[6]
  CLSI QC range (MIC): (0.008-0.06) μg/mL
Veillonella
  % S: 100%
  MIC50: ≤0.03 µg/mL
  MIC90: ≤0.03 µg/mL
  MIC range: ≤0.03 to 0.25 µg/mL
MDR Enterobacteriaceae
  % S: 75%
  MIC50: ≤0.12 µg/mL
  MIC90: >8 µg/mL
Prevotella bivia
  % S: 100%
  MIC50: 0.03 µg/mL (≈ 0.0782 µM)
  MIC90: ≤0.03 µg/mL
  MIC range: ≤0.03 to 0.06 µg/mL
[7]
  % S: 100%
  MIC50: 0.25 µg/mL (≈ 0.652 µM)
  MIC90: 0.5 µg/mL (≈ 1.3 µM)
Pseudomonas aeruginosa
  % S: 64.2%
  MIC50: 1 µg/mL (≈ 2.61 µM)
  MIC90: >8 µg/mL
Bacteroides vulgatus
  % S: 100%
  MIC50: 0.5 µg/mL (≈ 1.3 µM)
  MIC90: 1 µg/mL (≈ 2.61 µM)
  MIC range: 0.125 to 1 µg/mL
Fusobacterium spp [8]
  % S: 100%
  MIC50: 0.125 µg/mL (≈ 0.326 µM)
  MIC90: 0.25 µg/mL (≈ 0.652 µM)
  MIC range: ≤0.03 to 0.5 µg/mL
Klebsiella pneumoniae [9]
  % S: 38.3%
  MIC50: 8 µg/mL (≈ 20.9 µM)
  MIC90: 64 µg/mL (≈ 167 µM)
Haemophilus influenzae
  MIC50: ≤0.125 µg/mL
  MIC90: 0.5 µg/mL (≈ 1.3 µM)
Escherichia coli [10]
  % S: 83.1%
  MIC50: ≤0.06 µg/mL
  MIC90: 32 µg/mL (≈ 83.4 µM)
Bacteroides fragilis [11]
  % S: 94.5%
  MIC50: 0.25 µg/mL (≈ 0.652 µM)
  MIC90: 4 µg/mL (≈ 10.4 µM)
XDR Enterobacteriaceae
  % S: 20.5%
  MIC50: 8 µg/mL (≈ 20.9 µM)
  MIC90: >8 µg/mL
Staphylococcus aureus [12]
  MIC50: ≤0.12 µg/mL
  MIC90: 4 µg/mL (≈ 10.4 µM)
Citrobacter spp. [13]
  % S: 99%
  MIC50: 0.03 µg/mL (≈ 0.0782 µM)
  MIC90: 0.06 µg/mL (≈ 0.156 µM)
Proteus mirabilis
  % S: 95.5%
  MIC50: 0.12 µg/mL (≈ 0.313 µM)
  MIC90: 0.25 µg/mL (≈ 0.652 µM)
  MIC range: 0.12 to 16 µg/mL
Citrobacter spp. [14]
  % S: 86.4%
  MIC50: ≤0.06 µg/mL
  MIC90: 4 µg/mL (≈ 10.4 µM)

## CO/N=C(\C(=O)N[C@@H]1C(=O)N2C(C(=O)O)=C(CSc3nc(=O)c(=O)[nH]n3C)CS[C@H]12)c1csc(N)n1 [ceftriaxone]
Klebsiella pneumoniae [15]
  % S: 67%
  MIC50: ≤0.25 µg/mL
  MIC90: >64 µg/mL
Lactobacillus spp.
  MIC50: 4 µg/mL (≈ 7.21 µM)
  MIC90: 8 µg/mL (≈ 14.4 µM)
  MIC range: 0.12 to 64 µg/mL
Clostridium spp.
  % S: 75%
  MIC50: 2 µg/mL (≈ 3.61 µM)
[16]
  % S: 2%
  MIC50: 32 µg/mL (≈ 57.7 µM)
  MIC90: >32 µg/mL
Bacteroides fragilis [17]
  % S: 15%
  MIC50: 32 µg/mL (≈ 57.7 µM)
  MIC90: >32 µg/mL
Prevotella spp. [18]
  % S: 90%
  MIC50: 1 µg/mL (≈ 1.8 µM)
  MIC90: 8 µg/mL (≈ 14.4 µM)
  MIC range: ≤0.008 to 64 µg/mL
Streptococcus agalactiae
  MIC50: 0.025 µg/mL (≈ 0.0451 µM)
  MIC90: 0.1 µg/mL (≈ 0.18 µM)
  MIC range: 0.012 to 0.1 µg/mL
